Measured values: patent US20240270811A1, “Glycosylated Neuropeptide Derivative, Pharmaceutical Composition, Intranasal/Nasal Drop Formulation, and Use of Pharmaceutical Composition” (Tokyo University of Science Foundation, priority 2021, published 2024)
Where no end group is shown, it is not given here. The star is where a group is joined. X1 = CC(=O)N[C@@H]1[C@@H](O)[C@H](O[C@@H]2O[C@H](CO)[C@@H](O[C@@H]3O[C@H](CO[C@H]4O[C@H](CO)[C@@H](O)[C@H](O)[C@@H]4O[C@@H]4O[C@H](CO)[C@@H](O[C@@H]5O[C@H](CO[C@]6(C(=O)O)C[C@H](O)[C@@H](NC(C)=O)[C@H]([C@H](O)[C@H](O)CO)O6)[C@H](O)[C@H](O)[C@H]5O)[C@H](O)[C@H]4NC(C)=O)[C@@H](O)[C@H](O[C@H]4O[C@H](CO)[C@@H](O)[C@H](O)[C@@H]4O[C@@H]4O[C@H](CO)[C@@H](O[C@@H]5O[C@H](CO[C@]6(C(=O)O)C[C@H](O)[C@@H](NC(C)=O)[C@H]([C@H](O)[C@H](O)CO)O6)[C@H](O)[C@H](O)[C@H]5O)[C@H](O)[C@H]4NC(C)=O)[C@@H]3O)[C@H](O)[C@H]2NC(C)=O)[C@@H](CO)O[C@H]1NC(=O)C*

Assay: Brain distribution by immunostaining and fluorescence quantification (Example 7)
Assay type: in vivo
Settings: 3.0 nmol/mouse intranasal
Method: Mice were intranasally administered with 16% DMSO or GLP-2 derivatives (3.0 nmol/mouse), and the brain was isolated 5 minutes, 10 minutes, 20 minutes and 60 minutes after the administration.
The brain isolated 5 minutes or 10 minutes after the intranasal administration was subjected to infiltration fixation with 4% PFA at 4° C. overnight without performing perfusion fixation. The isolation of the brain 20 minutes or 60 minutes after the intranasal administration was performed by the following process.
The mouse was fixed in a supine position under anesthesia with isoflurane, and the chest was incised. PBS and 4% PFA were perfused, in this order, from the left chamber of the heart throughout the whole body for fixing the tissue. The isolated brain was preserved in a 4% PFA solution. On the day following the isolation, the brain samples were substituted with 20% sucrose overnight (4° C.), and further with 30% sucrose overnight (4° C.). Thereafter, a frozen section with a thickness of 30 μm was prepared using a cryostat (CM3050S; Leica Microsystems).
Sections of the olfactory bulb (OB) including olfactory nerves, pons/principal sensory nucleus of trigeminal nerve (Pr5), hippocampus (HIP) and dorsomedial nucleus of the hypothalamus (DMH) were prepared by referring to Nissil staining images and the brain map (Paxinos and Franklin, 2003).
The frozen brain section was mounted on a slide glass, and a circle was drawn around the section with a liquid blocker. A blocking buffer was added inside the circle and the section was subjected to blocking for 30 minutes at room temperature. Thereafter, the section was added with a first antibody solution including a GLP-2 polyclonal antibody, diluted 200 times with a blocking solution, and subjected to incubation for 1 hour at room temperature. After washing three times with 1×PBS, the section was added with a second antibody solution including Alexa Fluor (trademark) 568 Goat Anti-Mouse IgG H&L, diluted 500 times with a BSA/PBS solution, and subjected to incubation for 1 hour at room temperature. After washing three times with 1×PBS, the section was mounted with ProLong (trademark) Diamond Antifade Mountant. After confirming the solidification of the mountant, the section was subjected to fluorescent observation and imaging with a confocal laser microscope (TCS SP8; Leica) and a software (Leica Application Suite X Software; Leica). Further, the fluorescent intensity in the image was calculated using the software and an average florescent intensity of each group was quantified.
The mice were intranasally administered with a PAS-CPP-GLP-2 (no sugar) or a PAS-CPP-GLP-2 (11-sugar).

FFLIPKGRRRRRRRRGGHADGSFSDEMNTILDNLAARDFINWLIQTKITDC(X1)-OH [PAS-CPP-GLP-2 (11-sugar)]
fluorescence at OB and Pr5 (5 minutes): a significant degree of fluorescence was observed
fluorescence at HIP and DMH (20 minutes): intense fluorescence was observed
fluorescence intensity at OB or Pr5 compared with 5 minutes (20 minutes): weaker than the fluorescence observed 5 minutes after the administration
fluorescence at HIP and DMH (60 minutes): a significant degree of fluorescence was observed
fluorescence at OB and Pr5 (60 minutes): a significant degree of fluorescence was observed
fluorescence intensity at OB and Pr5 compared with 5 minutes (60 minutes): weaker than the fluorescence observed 5 minutes after the administration
